Results on one substance are retold here after US20240158426A1, “TRANSITION METAL COMPLEX CONTAINING TETRADENTATE NITROGEN DONOR LIGAND AND ELECTROCHEMICAL BIOSENSOR COMPRISING SAME” (I-sens, Inc., priority 2020, published 2024).

This data set can be described thus: Cyclic voltammetry (CV) of TPMA-based osmium complexes. Particulars: Cl^− counter ion form; Ag/AgCl reference electrode; scanning rate 10 mV/s.

Experimental: In order to analyze electrochemical properties of the synthesized TPMA-based osmium complexes, cyclic voltammetry (CV) was used. A well-washed carbon glass electrode with a diameter of 3 mm was used as a working electrode, and an Ag/AgCl electrode was used as a reference electrode, and a Pt electrode was used as a counter electrode to measure it at a scanning rate of 10 mV/s. […] In order to find out only the position of the redox peak, the complex in a Cl^− counter ion form was measured in condition that the concentration of each substance was not constant, by measuring the Cl^− substance in a solution state during the anion exchange process. […] The change in the oxidation/reduction potential according to the type of the substituent and coordinated ligand was analyzed centering on the present complex.

As to [Os(TPMA)Cl2]^+(PF6^−) [Complex 18], the “oxidation/reduction potential E1/2” value is listed as −0.339 V.
